Measurements from patent US9492460B2, “Carbazole compounds useful as bromodomain inhibitors” (Bristol-Myers Squibb Company, priority 2013, dated 2016).

What follows are compounds tested against T1, bromodomain BRD4 (44-168), BRD4 (333-460), and BRD4 (1-477 or 44-460) (Homo sapiens, UniProt O60885) (assay: Time Resolved Fluorescence Resonance Energy Transfer (TR-FRET) binding assay). Conditions: one of the FRET assays described.
T1 construct: BRD4(44-168), BRD4(333-460), BRD4(44-460), BRD4(1-477), O60885-1; fused on or other part: N-terminal BirA biotinylation motif, biotinylated; The TVMV-cleavable His6 tag is removed, except in some BRD4(44-460) runs detected with anti-His terbium cryptate
With `CNC(=O)c1cc(-c2c(C)noc2C)cc2c1c1cc(N3CCCOC3=O)ccc1n2C(C)c1ccccc1` (centres unmarked) [Example 173, 2-(3,5-dimethyl-4-isoxazolyl)-N-methyl-6-(2-oxo-1,3-oxazinan-3-yl)-9-(1-phenylethyl)-9H-carbazole-4-carboxamide] the IC50 was < 7500 nM.
`Cc1noc(C)c1-c1cc(C(N)=O)c2c3cc(C(=O)N4CC(C)OC(C)C4)ccc3n(C(C)c3ccccc3)c2c1` (centres unmarked) [Example 39] was tested, and the IC50 was < 50 nM.
For `Cc1noc(C)c1-c1cc(C(N)=O)c2c3cc(C(=O)N4CC(C)OC(C)C4)ccc3n(Cc3ccc(C#N)cc3)c2c1` (centres unmarked) [Example 37], the IC50 was < 50 nM.
With `Cc1noc(C)c1-c1cc(C(N)=O)c2c3cc(C(=O)N4CC(C)OC(C)C4)ccc3n(Cc3cscn3)c2c1` (centres unmarked) [Example 27] the IC50 was < 50 nM.
For `Cc1noc(C)c1-c1cc(C(N)=O)c2c3cc(NS(C)(=O)=O)ccc3n(Cc3ccccc3)c2c1` [Example 143, 9-benzyl-2-(3,5-dimethyl-4-isoxazolyl)-6-(methylsulfonamido)-9H-carbazole-4-carboxamide], the IC50 was < 50 nM.
In the case of `CNc1ccc2c(c1)c1c(C(N)=O)cc(-c3c(C)noc3C)cc1n2Cc1ccccc1` [Example 130, 9-Benzyl-2-(3,5-dimethyl-4-isoxazolyl)-6-(methylamino)-9H-carbazole-4-carboxamide], the IC50 is reported as < 50 nM.
`CON(C)C(=O)c1ccc2c3c(C(N)=O)cc(-c4c(C)noc4C)cc3n(Cc3ccccc3)c2c1` [Example 189, 9-Benzyl-7-(3,5-dimethyl-4-isoxazolyl)-N˜2˜-methoxy-N˜2˜-methyl-9H-carbazole-2,5-dicarboxamide] was tested, and the IC50 was < 50 nM.
`Cc1noc(C)c1-c1cc(C(N)=O)c2c3ccc(C(C)(C)O)cc3n(CC3CCOCC3)c2c1` [Example 197, 2-(3,5-dimethyl-4-isoxazolyl)-7-(1-hydroxy-1-methylethyl)-9-(tetrahydro-2H-pyran-4-ylmethyl)-9H-carbazole-4-carboxamide] was tested, and the IC50 was < 50 nM.
`COC(=O)c1ccc2c3c(C#N)cc(-c4c(C)noc4C)cc3n(C(c3ccccc3)c3ccccc3)c2c1` [Example 191, Methyl 5-cyano-7-(3,5-dimethyl-4-isoxazolyl)-9-(diphenylmethyl)-9H-carbazole-2-carboxylate] was tested, and the IC50 was < 50 nM.
In the case of `Cc1noc(C)c1-c1cc(C(=O)NC2CC2)c2c3cc(C(=O)N4CC(F)C4)ccc3n(Cc3ccc(F)cc3)c2c1` [Example 125, N-cyclopropyl-2-(3,5-dimethyl-4-isoxazolyl)-6-((3-fluoro-1-azetidinyl)carbonyl)-9-(4-fluorobenzyl)-9H-carbazole-4-carboxamide], the IC50 is reported as < 50 nM.
For `Cc1noc(C)c1-c1cc(C(N)=O)c2c3cc(C(=O)N4CC(F)C4)ccc3n(C(C)c3ccc(F)cc3)c2c1` (centres unmarked) [Example 91], the IC50 was < 50 nM.
In the case of `Cc1noc(C)c1-c1cc(C(N)=O)c2c3cc(C(=O)N4CC(F)C4)ccc3n(C(C)c3cccc(C(F)(F)F)c3)c2c1` (centres unmarked) [Example 88], the IC50 is reported as < 50 nM.
With `Cc1ccccc1Cn1c2ccc(C(=O)N3CC(C)OC(C)C3)cc2c2ccc(-c3c(C)noc3C)cc21` (centres unmarked) [Example 19] the IC50 was < 500 nM.
With `CNC(=O)c1cc(-c2c(C)noc2C)cc2c1c1cc(C(=O)N3CC(F)C3)ccc1n2Cc1ccc(Cl)cc1` [Example 102, 9-(4-chlorobenzyl)-2-(3,5-dimethylisoxazol-4-yl)-6-(3-fluoroazetidine-1-carbonyl)-N-methyl-9H-carbazole-4-carboxamide] the IC50 was < 50 nM.
With `Cc1noc(C)c1-c1cc(C(=O)NC(C)C)c2c3cc(C(=O)N4CC(F)C4)ccc3n(Cc3ccc(F)cc3)c2c1` [Example 127, 2-(3,5-dimethyl-4-isoxazolyl)-6-((3-fluoro-1-azetidinyl)carbonyl)-9-(4-fluorobenzyl)-N-isopropyl-9H-carbazole-4-carboxamide] the IC50 was < 7500 nM.
In the case of `Cc1noc(C)c1-c1cc(C(N)=O)c2c3cc(C(=O)N4CC(C)OC(C)C4)ccc3n(Cc3ccccc3Cl)c2c1` (centres unmarked) [Example 33], the IC50 is reported as < 50 nM.
For `Cc1noc(C)c1-c1cc(C(N)=O)c2c3cc(C(=O)N4C[C@@H](C)O[C@@H](C)C4)ccc3n(CC3CCC3)c2c1` [Example 26, 9-(cyclobutylmethyl)-2-(3,5-dimethyl-4-isoxazolyl)-6-((cis-2,6-dimethyl-4-morpholinyl)carbonyl)-9H-carbazole-4-carboxamide], the IC50 was < 50 nM.
For `Cc1noc(C)c1-c1cc(C(N)=O)c2c3cc(C(=O)N4C(C)(C)CC(O)CC4(C)C)ccc3n(Cc3ccccc3)c2c1` [Example 63], the IC50 was < 50 nM.
In the case of `Cc1noc(C)c1-c1cc(C(N)=O)c2c3cc(O)ccc3n(Cc3ccccc3)c2c1` [Example 178, 9-benzyl-2-(3,5-dimethyl-4-isoxazolyl)-6-hydroxy-9H-carbazole-4-carboxamide], the IC50 is reported as < 50 nM.
`Cc1noc(C)c1-c1cc(C(N)=O)c2c3cc(C(=O)N4CC(C)OC(C)C4)ccc3n(Cc3ccncn3)c2c1` (centres unmarked) [Example 38] was tested, and the IC50 was < 500 nM.
With `Cc1noc(C)c1-c1cc(C(N)=O)c2c3cc(C(=O)N4CCCC4)ccc3n(Cc3ccccc3)c2c1` [Example 66] the IC50 was < 50 nM.
`Cc1noc(C)c1-c1cc(C(N)=O)c2c3cc(C(=O)N4CC(C)OC(C)C4)ccc3n(Cc3ccc(F)cc3F)c2c1` (centres unmarked) [Example 36] was tested, and the IC50 was < 50 nM.
For `Cc1noc(C)c1-c1cc(C(N)=O)c2c3ccc(C(=O)N4CCOCC4)cc3n(C(c3ccccc3)c3ccccc3)c2c1` [Example 196, 2-(3,5-Dimethyl-4-isoxazolyl)-9-(diphenylmethyl)-7-(4-morpholinylcarbonyl)-9H-carbazole-4-carboxamide], the IC50 was < 50 nM.
With `Cc1noc(C)c1-c1cc(C(N)=O)c2c3ccc(C(=O)N4CCOCC4)cc3n(Cc3ccccc3)c2c1` [Example 188, 9-Benzyl-2-(3,5-dimethyl-4-isoxazolyl)-7-(morpholine-4-carbonyl)-9H-carbazole-4-carboxamide] the IC50 was < 50 nM.
For `Cc1noc(C)c1-c1cc(C(N)=O)c2c3cc(C(=O)N4CC[C@@H](F)C4)ccc3n(Cc3ccccc3)c2c1` [Example 60], the IC50 was < 50 nM.
`Cc1noc(C)c1-c1cc(C(N)=O)c2c3cc(C(=O)N4CC(C)OC(C)C4)ccc3n(Cc3cc(F)ccc3F)c2c1` (centres unmarked) [Example 42] was tested, and the IC50 was < 50 nM.
`Cc1noc(C)c1-c1cc(C(N)=O)c2c3cc(C(=O)N4CC(C)OC(C)C4)ccc3n(Cc3cccc(F)c3F)c2c1` (centres unmarked) [Example 41] was tested, and the IC50 was < 50 nM.
In the case of `Cc1noc(C)c1-c1cc(C(N)=O)c2c3cc(N4CCOC4=O)ccc3n(C(C)c3ccccc3)c2c1` (centres unmarked) [Example 163, 2-(3,5-dimethyl-4-isoxazolyl)-6-(2-oxo-1,3-oxazolidin-3-yl)-9-(1-phenylethyl)-9H-carbazole-4-carboxamide], the IC50 is reported as < 50 nM.
For `CC(=O)Nc1ccc2c(c1)c1c(C(N)=O)cc(-c3c(C)noc3C)cc1n2Cc1ccccc1` [Example 142, 6-acetamido-9-benzyl-2-(3,5-dimethyl-4-isoxazolyl)-9H-carbazole-4-carboxamide], the IC50 was < 50 nM.
`COc1ccc2c(c1)c1c(C(N)=O)cc(-c3c(C)noc3C)cc1n2C(C)c1ccccc1` (centres unmarked) [Example 176, 2-(3,5-dimethyl-4-isoxazolyl)-6-methoxy-9-(1-phenylethyl)-9H-carbazole-4-carboxamide] was tested, and the IC50 was < 50 nM.
In the case of `Cc1noc(C)c1-c1cc(C(N)=O)c2c3cc(C(=O)N4CC(C)OC(C)C4)ccc3n(Cc3ccccc3C#N)c2c1` (centres unmarked) [Example 43], the IC50 is reported as < 50 nM.
For `Cc1noc(C)c1-c1cc(C(N)=O)c2c3cc(C(=O)N4CCCCC4C)ccc3n(Cc3ccccc3)c2c1` (centres unmarked) [Example 73], the IC50 was < 50 nM.
